Reference: ChEMBL document CHEMBL1201862, “PubChem BioAssay data set” (2004)
The source made the active and inactive calls.

Legend:
Genome polyprotein = Genome polyprotein (dengue virus type 2, UniProt P29990); assay: flavivirus cap methylation enzyme inhibition – biochemical, confirmation dose response, primary screen (AID 588689); type: functional
[1] = luciferase reporter signal suppression in cells – H4 neuroglioma cells, luminescence, dose response (AID 1990); type: functional, cell-based
[2] = Luminescence Cell-Based Dose Response HTS to Identify Inhibitors of 5'UTR Stem-Loop Driven Prion Protein mRNA Translation in H4 Neuroglioblastoma Cells. [Related pubchem assays: 1827 (Project Summary), 1813 (Primary HTS)]; type: functional
[3] = alpha-synuclein stem-loop luciferase translation blockers – H4 neuroglioma cells, luminescence, confirmation (AID 1988); type: functional, cell-based
[4] = biological target: T1, Carboxy-terminal domain RNA polymerase II polypeptide A small phosphatase 1 (Homo sapiens, UniProt Q9GZU7); assay: CTDSP1 inhibitors, concentration-response, biochemical, absorbance readout, ultra-high-throughput screen actives (AID 540297); type: functional
T1 sequence (Q9GZU7 whole entry): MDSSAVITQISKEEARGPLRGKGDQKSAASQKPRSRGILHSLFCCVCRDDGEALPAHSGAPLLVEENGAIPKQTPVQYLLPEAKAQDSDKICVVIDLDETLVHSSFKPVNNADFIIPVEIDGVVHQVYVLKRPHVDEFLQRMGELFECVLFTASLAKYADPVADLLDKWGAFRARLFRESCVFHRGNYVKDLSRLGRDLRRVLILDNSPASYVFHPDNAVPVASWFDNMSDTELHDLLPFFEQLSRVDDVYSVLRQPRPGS

Protein skinhead-1 = biological target: T2, Protein skinhead-1 (Caenorhabditis elegans, UniProt P34707); type: functional
T2 sequence (P34707 whole entry): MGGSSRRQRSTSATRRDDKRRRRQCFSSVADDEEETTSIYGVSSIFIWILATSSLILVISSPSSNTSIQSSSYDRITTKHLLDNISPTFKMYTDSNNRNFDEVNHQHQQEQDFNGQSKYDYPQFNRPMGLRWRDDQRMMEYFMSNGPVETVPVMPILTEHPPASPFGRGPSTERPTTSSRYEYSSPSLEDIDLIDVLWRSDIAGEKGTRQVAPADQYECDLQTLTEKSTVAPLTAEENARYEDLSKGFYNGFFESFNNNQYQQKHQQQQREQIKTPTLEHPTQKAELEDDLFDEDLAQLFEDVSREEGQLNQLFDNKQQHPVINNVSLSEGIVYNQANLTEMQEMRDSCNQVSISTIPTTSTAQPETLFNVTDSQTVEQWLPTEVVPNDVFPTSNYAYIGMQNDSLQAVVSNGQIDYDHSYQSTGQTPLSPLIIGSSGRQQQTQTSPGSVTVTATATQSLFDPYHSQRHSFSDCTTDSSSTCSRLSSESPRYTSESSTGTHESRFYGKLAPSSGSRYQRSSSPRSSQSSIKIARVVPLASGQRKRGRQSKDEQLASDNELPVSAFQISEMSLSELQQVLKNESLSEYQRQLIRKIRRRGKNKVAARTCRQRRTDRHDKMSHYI

Protein RecA = biological target: T3, Protein RecA (Mycobacterium tuberculosis, UniProt P9WHJ3); assay: Fluorescence Cell-Free Homogeneous Dose Retest to Identify Inhibitors of RecA-Intein Splicing Activity. [Related pubchem assays (depositor defined):AID2097, AID2223, AID489010, AID492950]; type: functional
T3 sequence (P9WHJ3 whole entry): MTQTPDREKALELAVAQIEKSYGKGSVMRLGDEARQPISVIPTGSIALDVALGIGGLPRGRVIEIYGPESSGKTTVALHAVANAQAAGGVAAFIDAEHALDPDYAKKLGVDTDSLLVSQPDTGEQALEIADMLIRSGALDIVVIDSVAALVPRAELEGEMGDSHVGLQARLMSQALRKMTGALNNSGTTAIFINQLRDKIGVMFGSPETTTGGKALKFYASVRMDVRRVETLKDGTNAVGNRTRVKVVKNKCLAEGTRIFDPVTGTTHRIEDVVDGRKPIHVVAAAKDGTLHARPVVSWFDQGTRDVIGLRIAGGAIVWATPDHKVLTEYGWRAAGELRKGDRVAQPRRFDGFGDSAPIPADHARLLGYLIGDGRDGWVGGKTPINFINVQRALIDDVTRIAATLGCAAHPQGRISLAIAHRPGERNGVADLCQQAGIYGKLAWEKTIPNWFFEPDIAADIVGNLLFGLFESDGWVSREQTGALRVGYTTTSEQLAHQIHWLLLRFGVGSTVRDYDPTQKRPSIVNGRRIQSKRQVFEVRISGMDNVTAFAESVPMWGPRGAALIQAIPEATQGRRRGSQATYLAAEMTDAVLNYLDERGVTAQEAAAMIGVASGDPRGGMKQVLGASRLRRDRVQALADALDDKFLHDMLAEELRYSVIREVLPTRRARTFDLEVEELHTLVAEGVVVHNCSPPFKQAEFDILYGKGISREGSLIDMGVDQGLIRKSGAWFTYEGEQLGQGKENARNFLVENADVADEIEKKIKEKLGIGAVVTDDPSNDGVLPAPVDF

[5] = biological target: T4, Replicative DNA helicase DnaB (Mycobacterium tuberculosis, UniProt P9WMR3); assay: DnaB intein splicing inhibitors, dose response, biochemical, cell-free fluorescence (AID 449749); type: functional
T4 sequence (P9WMR3 whole entry): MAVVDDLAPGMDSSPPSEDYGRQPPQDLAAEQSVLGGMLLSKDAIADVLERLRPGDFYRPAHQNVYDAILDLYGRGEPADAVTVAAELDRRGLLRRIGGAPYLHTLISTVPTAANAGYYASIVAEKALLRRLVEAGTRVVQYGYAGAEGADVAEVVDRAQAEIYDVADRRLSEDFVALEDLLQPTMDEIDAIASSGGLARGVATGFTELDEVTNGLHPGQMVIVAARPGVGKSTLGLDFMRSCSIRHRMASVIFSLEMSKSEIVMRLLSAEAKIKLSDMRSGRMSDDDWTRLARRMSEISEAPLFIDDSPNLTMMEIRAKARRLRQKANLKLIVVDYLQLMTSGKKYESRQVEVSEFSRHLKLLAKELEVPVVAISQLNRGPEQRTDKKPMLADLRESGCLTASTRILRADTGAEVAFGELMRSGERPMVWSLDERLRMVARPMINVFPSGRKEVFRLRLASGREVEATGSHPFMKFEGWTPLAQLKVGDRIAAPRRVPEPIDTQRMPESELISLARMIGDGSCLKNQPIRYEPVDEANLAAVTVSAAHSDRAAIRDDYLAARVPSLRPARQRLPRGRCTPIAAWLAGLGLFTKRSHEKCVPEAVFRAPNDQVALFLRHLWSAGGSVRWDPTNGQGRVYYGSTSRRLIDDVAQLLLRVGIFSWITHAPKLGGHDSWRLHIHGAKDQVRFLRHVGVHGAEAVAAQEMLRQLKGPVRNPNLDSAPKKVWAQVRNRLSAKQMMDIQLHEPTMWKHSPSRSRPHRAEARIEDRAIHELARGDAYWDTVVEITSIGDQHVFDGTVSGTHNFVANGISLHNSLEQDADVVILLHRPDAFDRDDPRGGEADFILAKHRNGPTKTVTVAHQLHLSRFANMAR

[6] = Luminescence Cell-Based Dose Response HTS to Identify Activators of Luciferase Translation or Activity in H4 […] Cells. [Related pubchem assays: 1829 (Project Summary), 1814 (Primary HTS)]; type: functional
Cytochrome P450 1A2 = biological target: T5, Cytochrome P450 1A2 (Homo sapiens, UniProt P05177);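 also: PubChem cytochrome P450 panel assay, CYP1A2 panel member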
T5 sequence (P05177 whole entry): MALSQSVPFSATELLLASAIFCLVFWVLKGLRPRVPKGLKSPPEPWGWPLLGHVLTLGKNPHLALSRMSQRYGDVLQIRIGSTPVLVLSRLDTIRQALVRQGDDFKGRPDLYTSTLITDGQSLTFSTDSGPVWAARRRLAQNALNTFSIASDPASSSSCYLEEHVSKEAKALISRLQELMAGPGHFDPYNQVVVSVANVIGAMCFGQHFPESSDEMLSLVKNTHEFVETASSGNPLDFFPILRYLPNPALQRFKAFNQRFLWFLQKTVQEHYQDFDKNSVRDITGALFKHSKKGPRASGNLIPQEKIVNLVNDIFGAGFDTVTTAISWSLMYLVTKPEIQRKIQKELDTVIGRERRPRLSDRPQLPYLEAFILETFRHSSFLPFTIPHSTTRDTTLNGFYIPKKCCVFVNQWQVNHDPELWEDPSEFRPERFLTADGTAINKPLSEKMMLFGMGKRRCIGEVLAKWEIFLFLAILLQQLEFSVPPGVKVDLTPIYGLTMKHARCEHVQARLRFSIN

Cytochrome P450 2C9 = Cytochrome P450 2C9 (Homo sapiens, UniProt P11712)
Cytochrome P450 2D6 = Cytochrome P450 2D6 (Homo sapiens, UniProt P10635);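 also: CYP2D6 member of a cytochrome P450 panel assay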
Cytochrome P450 3A4 = Cytochrome P450 3A4 (Homo sapiens, UniProt P08684);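 also: CYP3A4 tested as one member of a cytochrome P450 panel screen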
Sequence of Cytochrome P450 3A4 (P08684 whole entry): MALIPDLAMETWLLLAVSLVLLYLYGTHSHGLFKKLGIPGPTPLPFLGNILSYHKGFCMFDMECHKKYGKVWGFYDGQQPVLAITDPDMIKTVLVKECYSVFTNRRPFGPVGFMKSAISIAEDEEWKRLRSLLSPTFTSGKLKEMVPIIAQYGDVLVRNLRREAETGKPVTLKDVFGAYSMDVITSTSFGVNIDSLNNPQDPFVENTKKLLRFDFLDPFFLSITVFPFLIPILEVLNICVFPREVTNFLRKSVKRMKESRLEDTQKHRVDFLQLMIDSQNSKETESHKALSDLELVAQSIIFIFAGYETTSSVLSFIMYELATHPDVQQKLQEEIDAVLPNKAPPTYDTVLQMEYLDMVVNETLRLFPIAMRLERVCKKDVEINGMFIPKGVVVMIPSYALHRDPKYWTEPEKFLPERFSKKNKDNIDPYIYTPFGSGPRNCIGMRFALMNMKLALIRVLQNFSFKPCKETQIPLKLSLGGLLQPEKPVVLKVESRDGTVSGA

Sequence of Genome polyprotein (P29990 2492-3391 limits assumed): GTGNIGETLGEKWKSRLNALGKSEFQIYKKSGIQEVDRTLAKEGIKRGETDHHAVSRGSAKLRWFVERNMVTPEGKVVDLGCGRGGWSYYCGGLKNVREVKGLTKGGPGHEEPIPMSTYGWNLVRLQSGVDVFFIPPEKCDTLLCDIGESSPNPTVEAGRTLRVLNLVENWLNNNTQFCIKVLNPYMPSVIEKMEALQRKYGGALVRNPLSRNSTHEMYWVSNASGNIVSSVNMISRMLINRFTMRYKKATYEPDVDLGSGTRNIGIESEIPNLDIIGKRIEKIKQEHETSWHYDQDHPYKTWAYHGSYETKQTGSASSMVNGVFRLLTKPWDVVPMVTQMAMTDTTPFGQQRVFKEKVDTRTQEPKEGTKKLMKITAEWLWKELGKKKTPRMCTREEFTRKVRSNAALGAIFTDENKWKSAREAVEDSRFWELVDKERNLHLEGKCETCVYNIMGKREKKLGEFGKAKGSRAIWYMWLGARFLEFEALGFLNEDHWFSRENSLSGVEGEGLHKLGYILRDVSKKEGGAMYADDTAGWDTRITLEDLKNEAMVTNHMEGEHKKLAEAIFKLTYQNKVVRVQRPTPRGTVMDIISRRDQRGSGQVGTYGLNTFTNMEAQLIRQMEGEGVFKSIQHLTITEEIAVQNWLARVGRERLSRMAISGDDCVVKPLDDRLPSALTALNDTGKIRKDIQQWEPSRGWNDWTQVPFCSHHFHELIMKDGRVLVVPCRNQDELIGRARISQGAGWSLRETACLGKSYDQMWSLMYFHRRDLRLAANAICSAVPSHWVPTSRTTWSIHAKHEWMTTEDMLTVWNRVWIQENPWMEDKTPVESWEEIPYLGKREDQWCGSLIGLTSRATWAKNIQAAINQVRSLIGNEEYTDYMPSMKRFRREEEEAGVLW
Sequence of Cytochrome P450 2D6 (P10635 whole entry): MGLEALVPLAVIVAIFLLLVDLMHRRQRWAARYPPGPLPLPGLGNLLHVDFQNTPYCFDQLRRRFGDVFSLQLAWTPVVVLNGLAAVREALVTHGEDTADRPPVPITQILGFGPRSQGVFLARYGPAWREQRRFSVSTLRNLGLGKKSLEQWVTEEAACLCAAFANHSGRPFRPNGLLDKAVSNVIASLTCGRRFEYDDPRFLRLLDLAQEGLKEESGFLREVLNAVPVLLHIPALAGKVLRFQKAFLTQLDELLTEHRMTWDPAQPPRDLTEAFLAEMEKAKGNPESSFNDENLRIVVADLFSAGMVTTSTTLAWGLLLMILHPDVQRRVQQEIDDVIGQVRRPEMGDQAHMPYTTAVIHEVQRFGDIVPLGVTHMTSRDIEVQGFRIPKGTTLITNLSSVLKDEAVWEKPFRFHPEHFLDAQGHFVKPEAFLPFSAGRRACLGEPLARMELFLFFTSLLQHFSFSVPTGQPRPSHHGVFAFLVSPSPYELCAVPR
Sequence of Cytochrome P450 2C9 (P11712 whole entry): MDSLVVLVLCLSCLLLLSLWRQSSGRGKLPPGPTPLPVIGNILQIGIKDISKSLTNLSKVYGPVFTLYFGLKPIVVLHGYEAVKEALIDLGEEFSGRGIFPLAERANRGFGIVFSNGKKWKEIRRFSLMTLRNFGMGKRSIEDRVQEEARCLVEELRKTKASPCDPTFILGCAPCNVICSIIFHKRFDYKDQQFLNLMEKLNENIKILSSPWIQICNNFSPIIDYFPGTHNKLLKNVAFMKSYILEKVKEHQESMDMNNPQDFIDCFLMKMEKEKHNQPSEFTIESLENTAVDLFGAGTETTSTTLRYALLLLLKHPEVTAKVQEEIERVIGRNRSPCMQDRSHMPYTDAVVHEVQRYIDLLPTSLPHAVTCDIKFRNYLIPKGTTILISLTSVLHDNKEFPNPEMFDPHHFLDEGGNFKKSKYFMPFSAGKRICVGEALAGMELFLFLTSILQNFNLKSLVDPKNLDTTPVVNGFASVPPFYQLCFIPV

CCc1sc(/C=C(/C#N)C(N)=S)cc1[N+](=O)[O-]
IC50 (Genome polyprotein): 33.9 µM (active)

N#Cc1cnn2c1nc(N1CCCCC1)c1ccccc12
EC50 [1]: 10.6 µM (active)
EC50 [2]: 11.3 µM (active)
EC50 [3]: 12.7 µM (active)

Clc1nc(Cl)nc(-c2cn(-c3ccccc3)c3ccccc23)n1
IC50 [4]: 7.98 µM (active)

Cc1cc(C)cc(NC(=S)N(Cc2ccc(Cl)cc2)Cc2ccc(C(=O)O)cc2)c1
IC50 (Genome polyprotein): 92.1 µM (active)

O=C(Nc1ccc(Cl)cc1Cl)c1ccc(Br)o1
IC50 (Protein skinhead-1): > 100 µM (inactive)

Cc1ccccc1NC(=O)C(=O)NNC(=O)COc1ccc2ccccc2c1
IC50 [4]: 13.1 µM (active)

O=C(/C=C/c1ccccc1)Nc1ccc(CN2CCOCC2)cc1
IC50 (Protein skinhead-1): 11.4 µM (active)

O=C1c2ccccc2OC2(C=Cc3ccccc3O2)N1Cc1ccccc1 (stereo not given)
EC50 (Protein RecA): 166 µM (active)
AC50 [5]: 2.83 µM (active)
IC50 (Protein skinhead-1): > 100 µM (inactive)

Oc1nncc(NCCc2ccccc2)c1Cl
EC50 [1]: 6.91 µM (active)
EC50 [2]: 25.9 µM (active)
EC50 [3]: 14.2 µM (active)

CCSc1nn2c(=O)c3ccccc3nc2s1
EC50 [6]: 0.23 µM (active)

COc1cc(/C=C2/C(=O)NN(c3ccc(C)c(Cl)c3)C2=O)cc([N+](=O)[O-])c1O
IC50 [4]: 6.75 µM (active)

O=C(Nc1ccccc1)c1cc2ccccc2c(=O)s1
EC50 [6]: 6.73 µM (active)

CC1CCCC(C)N1C(=O)COC(=O)/C=C/c1ccc(Br)o1 (stereo not given)
IC50 [4]: 19.1 µM (active)

O=C(c1ccc(-c2cccc(C(F)(F)F)c2)o1)N1CCOCC1
IC50 (Protein skinhead-1): > 100 µM (inactive)

O=C(CCN1C(=O)/C(=C\c2ccccc2F)SC1=S)Nc1ccc(C(=O)O)c(O)c1
EC50 (Protein RecA): 15.2 µM (active)
IC50 (Genome polyprotein): 32.5 µM (active)
AC50 [5]: 11.4 µM (active)

COc1ccc(OCCn2cc(/C=C(\C#N)C(=O)NCc3ccco3)c3ccccc32)cc1
EC50 [1]: 16.1 µM (active)
EC50 [2]: 27.8 µM (active)
EC50 [3]: 13.3 µM (active)

COc1ccc(N2CCN(C(=O)C3CCCN3S(=O)(=O)c3cccc4nsnc34)CC2)cc1 (stereo not given)
EC50 [1]: > 120 µM (not active)
EC50 [2]: > 120 µM (not active)
EC50 [3]: > 120 µM (not active)

O=C1CS/C(=C\[N+](=O)[O-])N1c1ccc(OC(F)(F)F)cc1
AC50 (Cytochrome P450 1A2): 6.31 µM (inconclusive)
EC50 (Protein RecA): 10.9 µM (active)
AC50 [5]: 219 µM (active)
AC50 (Cytochrome P450 2C9): 15.8 µM (inconclusive)
AC50 (Cytochrome P450 2D6): 15.8 µM (inconclusive)

Cc1cc(N)ccc1-n1nc2ccccc2n1
EC50 [1]: 22.4 µM (active)
EC50 [2]: 36.4 µM (active)
EC50 [3]: 35.7 µM (active)

OCCN1CCN(CC/C=C2/c3ccccc3CSc3ccccc32)CC1
EC50 [1]: > 120 µM (not active)
EC50 [2]: > 120 µM (not active)
EC50 [3]: > 120 µM (not active)

COc1ccc(N2CCN(C(S)=Nc3cc(C)cc(C)c3)CC2)cc1
EC50 [1]: > 120 µM (not active)
EC50 [2]: > 120 µM (not active)
EC50 [3]: > 120 µM (not active)
AC50 (Cytochrome P450 3A4): 2.51 µM (inconclusive)

C=C(C)c1cccc(C(C)(C)NC(=O)N2CCN(c3ncccn3)CC2)c1
IC50 (Protein skinhead-1): > 100 µM (inactive)

O=C1c2ccccc2C(=O)c2c(NCc3cccnc3)cccc21
IC50 (Protein skinhead-1): > 100 µM (inactive)

CC1(C)C(=O)Nc2ccccc2N1C(=O)COc1ccccc1C#N
IC50 [4]: 13.2 µM (active)

Cc1cc2c(SCC(=O)Nc3cccc(O)c3)ncnc2s1
IC50 [4]: 6.88 µM (active)

CC(=O)c1ccc(NC(=O)CN2C(=O)COc3ccc(S(=O)(=O)N4CCCC4)cc32)cc1
IC50 [4]: 6.65 µM (active)

CCOC(=O)C(C)C1(O)c2ccccc2-c2ncccc21 (stereo not given)
IC50 (Protein skinhead-1): > 100 µM (inactive)

Cc1ccc(C=Cc2ccccn2)cc1
IC50 (Protein skinhead-1): 33.9 µM (active)

Cn1/c(=N/C(=O)C2=NNC(=O)CC2)sc2ccccc21
EC50 [1]: > 120 µM (not active)
EC50 [2]: > 120 µM (not active)
EC50 [3]: > 120 µM (not active)

CC(O)CC(=O)O (stereo not drawn) [3-HYDROXYBUTYRIC ACID, (+/-)-]
IC50 (Protein skinhead-1): > 100 µM (inactive)
